# Data from patent publication US12215085B2 (priority 2019, dated 2025).
# Test system: rats with common carotid artery occlusion-induced vascular dementia
# Assay: Water maze test, common carotid artery occlusion-induced vascular dementia rats
# Assay type: in vivo, rat
# Settings: succinate; for orientation angle for reaching the platform / speed for reaching the platform / swimming path length for reaching the platform / time for reaching the platform: x ± s; for Average speed / Number of crossing the platform / Orientation angle / Swimming path length in the platform area/total swimming path length × 100% / Time in the platform area / Time in the platform quadrants: Day 7
# Source text: A rat blood vessel dementia model was made according to the references [ZHAO Xian-lin, FANG Xiu-bin, LI Dong-pei. Establishment of Vascular Dementia Model in Rats, J Chin Med Univ, 2002, 31 (3): 166-168; WANG Yong-yan, Zhang Bo-li, Editor-in-chief. Modern Chinese Medicine Clinic and Research on Vascular Dementia, People's Medical Publishing House, October 2003, First Version 214]: Chloral hydrate 0.4 g/kg was intraperitoneally injected for anesthetizing rats, and bilateral common carotid arteries were isolated and ligated. The animals were fed for 16 weeks, divided into groups on the last 7 days, and administered. The normal control group and the model group were administrated through the intragastric route with distilled water by 0.5 ml/100 g, the positive control group was administrated through the intragastric route with donepezil hydrochloride by 1.75 mg/kg (equivalent to 3.85 times the clinical daily dosage of 5 mg/70 kg), the low, medium and high-dose groups of Crystal Form A of octahydroaminoacridine succinate were administrated through the intragastric route with Crystal Form A of octahydroaminoacridine succinate by 0.7, 1.4 and 2.8 mg/kg (equivalent to 0.96, 1.92 and 3.85 times the clinical daily dosage of 8 mg/70 kg). The water maze test and the step-down test were carried out after continuous administration for 7 days, and the administration was continued during the test period. The water maze test was continuously performed for 7 days, in the first 6 days, in four different water entry points of quadrants 1, 2, 3 and 4, the time, the swimming path length, the orientation angle and the average speed of the rat reaching the platform were measured, meanwhile, the strategy for reaching the platform adopted by rats was observed, on the 7th day, the platform was removed, the number of rats crossing the platform in 2 minutes, the residence time in the platform area, the residence time in the platform quadrants, the percentage of the swimming path length in the platform area quadrants to the total swimming path length, the average speed and the orientation angle were measured. After the water maze test was finished, the step-down test was performed, and the number of electric shocks (or called as the error number) received by each rat within 5 minutes was recorded as the learning performance. The test was performed again after 24 hours, namely, the memory retention test, and the latent period for stepping-down the platform for the first time and the error number in five minutes were recorded. After the step-down test was finished, the brain was taken quickly for pathological examination, and the pathological changes of the hippocampus and the cortex were observed.
# [1] = Day 1, 0.7 mg/kg intragastric, 0.7 mg/kg
# [2] = Day 1, 1.4 mg/kg intragastric, 1.4 mg/kg
# [3] = Day 1, 2.8 mg/kg intragastric, 2.8 mg/kg
# [4] = Day 2, 0.7 mg/kg intragastric, 0.7 mg/kg
# [5] = Day 2, 1.4 mg/kg intragastric, 1.4 mg/kg
# [6] = Day 2, 2.8 mg/kg intragastric, 2.8 mg/kg
# [7] = Day 3, 0.7 mg/kg intragastric, 0.7 mg/kg
# [8] = Day 3, 1.4 mg/kg intragastric, 1.4 mg/kg
# [9] = Day 3, 2.8 mg/kg intragastric, 2.8 mg/kg
# [10] = Day 4, 0.7 mg/kg intragastric, 0.7 mg/kg
# [11] = Day 4, 1.4 mg/kg intragastric, 1.4 mg/kg
# [12] = Day 4, 2.8 mg/kg intragastric, 2.8 mg/kg
# [13] = Day 5, 0.7 mg/kg intragastric, 0.7 mg/kg
# [14] = Day 5, 1.4 mg/kg intragastric, 1.4 mg/kg
# [15] = Day 5, 2.8 mg/kg intragastric, 2.8 mg/kg
# [16] = Day 6, 0.7 mg/kg intragastric, 0.7 mg/kg
# [17] = Day 6, 1.4 mg/kg intragastric, 1.4 mg/kg
# [18] = Day 6, 2.8 mg/kg intragastric, 2.8 mg/kg
# [19] = 0.7 mg/kg intragastric, 0.7 mg/kg
# [20] = 1.4 mg/kg intragastric, 1.4 mg/kg
# [21] = 2.8 mg/kg intragastric, 2.8 mg/kg
smiles,measurement,setting,value
"Nc1c2c(nc3c1CCCC3)CCCC2.O=C(O)CCC(=O)O [Crystal Form K, 9-amino-1,2,3,4,5,6,7,8-octahydroacridine succinate]",adopted strategy for reaching the platform (the peripheral type and the random type %),[1],93.00%
same,orientation angle for reaching the platform,[1],68.46 ± 25.21 °
same,speed for reaching the platform,[1],21.26 ± 4.78 cm/s
same,swimming path length for reaching the platform,[1],1602.41 ± 583.25 cm
same,time for reaching the platform,[1],75.36 ± 14.23 s
same,adopted strategy for reaching the platform (the peripheral type and the random type %),[2],86.50%
same,orientation angle for reaching the platform,[2],69.28 ± 21.03 °
same,speed for reaching the platform,[2],20.45 ± 9.24 cm/s
same,swimming path length for reaching the platform,[2],1502.83 ± 613.11 cm
same,time for reaching the platform,[2],73.45 ± 14.49 s
same,adopted strategy for reaching the platform (the peripheral type and the random type %),[3],79.00%
same,orientation angle for reaching the platform,[3],70.38 ± 18.48 °
same,speed for reaching the platform,[3],19.88 ± 6.76 cm/s
same,swimming path length for reaching the platform,[3],1211.27 ± 259.82 cm
same,time for reaching the platform,[3],70.25 ± 9.82 s
same,adopted strategy for reaching the platform (the peripheral type and the random type %),[4],83.50%
same,orientation angle for reaching the platform,[4],60.47 ± 24.23 °
same,speed for reaching the platform,[4],21.66 ± 8.76 cm/s
same,swimming path length for reaching the platform,[4],1242.31 ± 438.47 cm
same,time for reaching the platform,[4],57.33 ± 17.88 s
same,adopted strategy for reaching the platform (the peripheral type and the random type %),[5],80.00%
same,orientation angle for reaching the platform,[5],58.29 ± 17.83 °
same,speed for reaching the platform,[5],24.28 ± 9.65 cm/s
same,swimming path length for reaching the platform,[5],1219.38 ± 892.43 cm
same,time for reaching the platform,[5],50.21 ± 20.11 s
same,adopted strategy for reaching the platform (the peripheral type and the random type %),[6],76.50%
same,orientation angle for reaching the platform,[6],57.88 ± 17.43 °
same,speed for reaching the platform,[6],28.24 ± 4.72 cm/s
same,swimming path length for reaching the platform,[6],1377.38 ± 328.92 cm
same,time for reaching the platform,[6],47.36 ± 14.52 s
same,adopted strategy for reaching the platform (the peripheral type and the random type %),[7],70.50%
same,orientation angle for reaching the platform,[7],59.03 ± 16.89 °
same,speed for reaching the platform,[7],20.12 ± 8.22 cm/s
same,swimming path length for reaching the platform,[7],749.48 ± 427.45 cm
same,time for reaching the platform,[7],45.78 ± 10.33 s
same,adopted strategy for reaching the platform (the peripheral type and the random type %),[8],71.00%
same,orientation angle for reaching the platform,[8],58.22 ± 10.34 °
same,speed for reaching the platform,[8],21.34 ± 6.99 cm/s
same,swimming path length for reaching the platform,[8],763.45 ± 414.55 cm
same,time for reaching the platform,[8],44.29 ± 20.13 s
same,adopted strategy for reaching the platform (the peripheral type and the random type %),[9],65.50%
same,orientation angle for reaching the platform,[9],55.11 ± 16.99 °
same,speed for reaching the platform,[9],20.10 ± 6.82 cm/s
same,swimming path length for reaching the platform,[9],644.62 ± 582.37 cm
same,time for reaching the platform,[9],40.67 ± 13.41 s
same,adopted strategy for reaching the platform (the peripheral type and the random type %),[10],75.50%
same,orientation angle for reaching the platform,[10],55.36 ± 19.61 °
same,speed for reaching the platform,[10],21.70 ± 10.21 cm/s
same,swimming path length for reaching the platform,[10],788.25 ± 300.86 cm
same,time for reaching the platform,[10],40.55 ± 16.73 s
same,adopted strategy for reaching the platform (the peripheral type and the random type %),[11],68.00%
same,orientation angle for reaching the platform,[11],53.49 ± 14.67 °
same,speed for reaching the platform,[11],20.28 ± 6.02 cm/s
same,swimming path length for reaching the platform,[11],752.34 ± 467.22 cm
same,time for reaching the platform,[11],39.57 ± 18.69 s
same,adopted strategy for reaching the platform (the peripheral type and the random type %),[12],62.50%
same,orientation angle for reaching the platform,[12],50.35 ± 15.5 °
same,speed for reaching the platform,[12],21.00 ± 5.91 cm/s
same,swimming path length for reaching the platform,[12],703.47 ± 231.68 cm
same,time for reaching the platform,[12],37.88 ± 17.67 s
same,adopted strategy for reaching the platform (the peripheral type and the random type %),[13],72.50%
same,orientation angle for reaching the platform,[13],53.56 ± 14.56 °
same,speed for reaching the platform,[13],21.42 ± 7.22 cm/s
same,swimming path length for reaching the platform,[13],664.56 ± 562.88 cm
same,time for reaching the platform,[13],31.42 ± 17.35 s
same,adopted strategy for reaching the platform (the peripheral type and the random type %),[14],62.00%
same,orientation angle for reaching the platform,[14],52.76 ± 19.40 °
same,speed for reaching the platform,[14],21.26 ± 8.46 cm/s
same,swimming path length for reaching the platform,[14],689.43 ± 267.98 cm
same,time for reaching the platform,[14],34.62 ± 12.48 s
same,adopted strategy for reaching the platform (the peripheral type and the random type %),[15],58.50%
same,orientation angle for reaching the platform,[15],53.49 ± 23.42 °
same,speed for reaching the platform,[15],22.93 ± 6.31 cm/s
same,swimming path length for reaching the platform,[15],642.45 ± 386.45 cm
same,time for reaching the platform,[15],28.41 ± 8.73 s
same,adopted strategy for reaching the platform (the peripheral type and the random type %),[16],70.00%
same,orientation angle for reaching the platform,[16],50.39 ± 22.30 °
same,speed for reaching the platform,[16],19.52 ± 14.27 cm/s
same,swimming path length for reaching the platform,[16],523.46 ± 237.12 cm
same,time for reaching the platform,[16],32.45 ± 21.25 s
same,adopted strategy for reaching the platform (the peripheral type and the random type %),[17],66.50%
same,orientation angle for reaching the platform,[17],50.34 ± 20.04 °
same,speed for reaching the platform,[17],22.54 ± 9.36 cm/s
same,swimming path length for reaching the platform,[17],531.55 ± 169.37 cm
same,time for reaching the platform,[17],28.21 ± 15.63 s
same,adopted strategy for reaching the platform (the peripheral type and the random type %),[18],54.00%
same,orientation angle for reaching the platform,[18],46.37 ± 26.8 °
same,speed for reaching the platform,[18],21.32 ± 7.46 cm/s
same,swimming path length for reaching the platform,[18],502.78 ± 482.65 cm
same,time for reaching the platform,[18],29.10 ± 17.83 s
same,Average speed,[19],23.62 ± 8.38 cm/s
same,Number of crossing the platform,[19],5.67 ± 3.45
same,Orientation angle,[19],27.88 ± 6.57 °
same,Swimming path length in the platform area/total swimming path length × 100%,[19],26.88 ± 7.36%
same,Time in the platform area,[19],2.87 ± 2.14 s
same,Time in the platform quadrants,[19],35.61 ± 10.91 s
same,Average speed,[20],24.69 ± 5.76 cm/s
same,Number of crossing the platform,[20],7.25 ± 2.45
same,Orientation angle,[20],24.69 ± 8.21 °
same,Swimming path length in the platform area/total swimming path length × 100%,[20],28.74 ± 8.90%
same,Time in the platform area,[20],2.18 ± 2.34 s
same,Time in the platform quadrants,[20],37.88 ± 12.37 s
same,Average speed,[21],25.45 ± 6.98 cm/s
same,Number of crossing the platform,[21],7.49 ± 3.51
same,Orientation angle,[21],23.57 ± 4.76 °
same,Swimming path length in the platform area/total swimming path length × 100%,[21],27.39 ± 10.42%
same,Time in the platform area,[21],2.56 ± 3.27 s
same,Time in the platform quadrants,[21],34.52 ± 15.82 s
